According to ChEMBL document CHEMBL4052819 (2017):

Assays:
[1] = test system: Klebsiella pneumoniae; assay: Potentiation of rifampicin-mediated antibacterial activity against Klebsiella pneumoniae ATCC 13883 assessed as decrease in rifampicin MIC at 1.56 to 12.5 ug/ml by broth dilution method relative to control; format: functional
[2] = test system: Klebsiella pneumoniae; assay: Potentiation of rifampicin-mediated antibacterial activity against Klebsiella pneumoniae ATCC 700603 assessed as decrease in rifampicin MIC at 1.56 to 12.5 ug/ml by broth dilution method relative to control; format: functional

## CC[C@H](C)[C@@H](NC(=O)[C@@H](NC(=O)[C@H](CCC(=O)O)NC(=O)[C@H](Cc1ccccc1)NC(=O)[C@@H](CCN)NC(=O)[C@H](CCN)NC(=O)[C@H](CO)NC(=O)[C@@H](Cc1c[nH]c2ccccc12)NC(=O)[C@@H](CO)NC(=O)CNC(=O)[C@@H](CCN)NC(=O)[C@H](N)C(C)C)C(C)C)C(=O)N[C@@H](C)C(=O)O
[1]
  fold change (FC): 256 - 512
[2]
  fold change (FC): 256 - 512
